Data published in PMC10066365, “Nemacol is a small molecule inhibitor of C. elegans vesicular acetylcholine transporter with anthelmintic potential” (Nature Communications, 2023).
Where “and” joins values, the source holds several entries; their conditions need not be identical. Equal values may be shown once.

Test system: C. elegans
Test: C. elegans motor phenotype scoring on solid media (Punc/jerky-unc, coiled, paralyzed), wild-type young adults
Type: in vivo, Caenorhabditis elegans
Conditions: for any phene, mean % fraction of young adults exhibiting any phenotype (coiled, jerky-Unc or paralyzed) / atypical locomotion (number of animals) / coiled (number of animals) / no phene (number of animals) / paralyzed (number of animals): one hour; for any phene, mean % fraction of young adults exhibiting any phenotype (coiled, jerky-Unc or paralyzed): mean of three biological replicates; for atypical locomotion (number of animals) / coiled (number of animals) / no phene (number of animals) / paralyzed (number of animals): young adults, 20 animals per trial, single replicate counts; for AVERAGES Fraction Coiled / AVERAGES Fraction Paralyzed / AVERAGES Fraction Punc: mean of 3 replicates; for Fraction Coiled / Fraction Paralyzed / Fraction Punc: single replicate

CCC1CCC(N2CCN(c3ccc([N+](=O)[O-])cc3)CC2)CC1 (stereo not shown) [Nemacol-2]
any phene, mean % fraction of young adults exhibiting any phenotype (coiled, jerky-Unc or paralyzed) (3.75uM): 29.1667%
atypical locomotion (number of animals) (3.75uM): 5 and 8 and 2 and 3 and 9
coiled (number of animals) (3.75uM): 0
no phene (number of animals) (3.75uM): 15 and 12 and 18 and 17 and 11
paralyzed (number of animals) (3.75uM): 0
NP (number of animals) (15 μM, 30 min, adults): 5 and 7 and 10
P (number of animals) (15 μM, 30 min, adults): 0
Punc (number of animals) (15 μM, 30 min, adults): 10 and 9 and 8
AVERAGES Fraction Coiled (15 μM, 30 min, adults): 0.0926
AVERAGES Fraction Paralyzed (15 μM, 30 min, adults): 0.0
AVERAGES Fraction Punc (15 μM, 30 min, adults): 0.5
Fraction Coiled (15 μM, 30 min, adults): 0.167 and 0.111 and 0.0
Fraction Paralyzed (15 μM, 30 min, adults): 0.0
Fraction Punc (15 μM, 30 min, adults): 0.556 and 0.5 and 0.444
C2 (number of animals) (15 μM, 60 min, adults): 2 and 1
P (number of animals) (15 μM, 60 min, adults): 0
Punc (number of animals) (15 μM, 60 min, adults): 14 and 15
AVERAGES Fraction Coiled (15 μM, 60 min, adults): 0.13
AVERAGES Fraction Paralyzed (15 μM, 60 min, adults): 0.0
AVERAGES Fraction Punc (15 μM, 60 min, adults): 0.8
Fraction Coiled (15 μM, 60 min, adults): 0.111 and 0.167
Fraction Paralyzed (15 μM, 60 min, adults): 0.0
Fraction Punc (15 μM, 60 min, adults): 0.8
C2 (number of animals) (15 μM, 90 min, adults): 1 and 2
P (number of animals) (15 μM, 90 min, adults): 0
Punc (number of animals) (15 μM, 90 min, adults): 15 and 11
AVERAGES Fraction Coiled (15 μM, 90 min, adults): 0.113
AVERAGES Fraction Paralyzed (15 μM, 90 min, adults): 0.0
AVERAGES Fraction Punc (15 μM, 90 min, adults): 0.8
Fraction Coiled (15 μM, 90 min, adults): 0.111 and 0.118
Fraction Paralyzed (15 μM, 90 min, adults): 0.0
Fraction Punc (15 μM, 90 min, adults): 0.8 and 0.647
Punc (number of animals) (15 μM, 120 min, adults): 11 and 7
AVERAGES Fraction Coiled (15 μM, 120 min, adults): 0.0741
AVERAGES Fraction Paralyzed (15 μM, 120 min, adults): 0.0185
AVERAGES Fraction Punc (15 μM, 120 min, adults): 0.537
Fraction Coiled (15 μM, 120 min, adults): 0.0556 and 0.111
Fraction Paralyzed (15 μM, 120 min, adults): 0.0 and 0.0556
Fraction Punc (15 μM, 120 min, adults): 0.6 and 0.4
C1 (number of animals) (15 μM, 240 min, adults): 0
C2 (number of animals) (15 μM, 240 min, adults): 0
NP (number of animals) (15 μM, 240 min, adults): 8 and 12 and 15
P (number of animals) (15 μM, 240 min, adults): 0
AVERAGES Fraction Coiled (15 μM, 240 min, adults): 0.037
AVERAGES Fraction Paralyzed (15 μM, 240 min, adults): 0.0741
AVERAGES Fraction Punc (15 μM, 240 min, adults): 0.6
Fraction Coiled (15 μM, 240 min, adults): 0.0 and 0.111
Fraction Paralyzed (15 μM, 240 min, adults): 0.0 and 0.111
Fraction Punc (15 μM, 240 min, adults): 0.556 and 0.6
C1 (number of animals) (15 μM, 360 min, adults): 0
NP (number of animals) (15 μM, 360 min, adults): 14 and 9 and 17
AVERAGES Fraction Coiled (15 μM, 360 min, adults): 0.037
AVERAGES Fraction Paralyzed (15 μM, 360 min, adults): 0.0185
AVERAGES Fraction Punc (15 μM, 360 min, adults): 0.2
Fraction Coiled (15 μM, 360 min, adults): 0.0 and 0.111
Fraction Paralyzed (15 μM, 360 min, adults): 0.0 and 0.0556
Fraction Punc (15 μM, 360 min, adults): 0.222 and 0.333 and 0.0556
Next Day Animals alive (moving fine) (15 μM, next day, adults): alive, recovered
any phene, mean % fraction of young adults exhibiting any phenotype (coiled, jerky-Unc or paralyzed) (15uM): 95.873%
atypical locomotion (number of animals) (15uM): 10 and 11 and 18 and 13
coiled (number of animals) (15uM): 5 and 2 and 4
no phene (number of animals) (15uM): 0 and 2 and 1
paralyzed (number of animals) (15uM): 5 and 2 and 0 and 3
C1 (number of animals) (30 μM, 30 min, adults): 3 and 2
Punc (number of animals) (30 μM, 30 min, adults): 10 and 11 and 16
AVERAGES Fraction Coiled (30 μM, 30 min, adults): 0.246
AVERAGES Fraction Paralyzed (30 μM, 30 min, adults): 0.0185
AVERAGES Fraction Punc (30 μM, 30 min, adults): 0.7
Fraction Coiled (30 μM, 30 min, adults): 0.333 and 0.3 and 0.111
Fraction Paralyzed (30 μM, 30 min, adults): 0.0556 and 0.0
Fraction Punc (30 μM, 30 min, adults): 0.556 and 0.647 and 0.9
NP (number of animals) (30 μM, 60 min, adults): 0
Punc (number of animals) (30 μM, 60 min, adults): 7 and 8 and 13
AVERAGES Fraction Coiled (30 μM, 60 min, adults): 0.3
AVERAGES Fraction Paralyzed (30 μM, 60 min, adults): 0.167
AVERAGES Fraction Punc (30 μM, 60 min, adults): 0.5
Fraction Coiled (30 μM, 60 min, adults): 0.4 and 0.333 and 0.222
Fraction Paralyzed (30 μM, 60 min, adults): 0.222 and 0.0556
Fraction Punc (30 μM, 60 min, adults): 0.4 and 0.444 and 0.7
NP (number of animals) (30 μM, 90 min, adults): 0
P (number of animals) (30 μM, 90 min, adults): 5 and 3
Punc (number of animals) (30 μM, 90 min, adults): 8 and 10 and 12
AVERAGES Fraction Coiled (30 μM, 90 min, adults): 0.241
AVERAGES Fraction Paralyzed (30 μM, 90 min, adults): 0.2
AVERAGES Fraction Punc (30 μM, 90 min, adults): 0.556
Fraction Coiled (30 μM, 90 min, adults): 0.278 and 0.167
Fraction Paralyzed (30 μM, 90 min, adults): 0.278 and 0.167
Fraction Punc (30 μM, 90 min, adults): 0.444 and 0.556 and 0.667
C1 (number of animals) (30 μM, 120 min, adults): 3 and 2
C2 (number of animals) (30 μM, 120 min, adults): 1 and 2
NP (number of animals) (30 μM, 120 min, adults): 0
AVERAGES Fraction Coiled (30 μM, 120 min, adults): 0.2
AVERAGES Fraction Paralyzed (30 μM, 120 min, adults): 0.278
AVERAGES Fraction Punc (30 μM, 120 min, adults): 0.5
Fraction Coiled (30 μM, 120 min, adults): 0.222 and 0.167
Fraction Paralyzed (30 μM, 120 min, adults): 0.556 and 0.222 and 0.0556
Fraction Punc (30 μM, 120 min, adults): 0.222 and 0.6 and 0.7
NP (number of animals) (30 μM, 240 min, adults): 2 and 3 and 4
P (number of animals) (30 μM, 240 min, adults): 4 and 2
Punc (number of animals) (30 μM, 240 min, adults): 11 and 12
AVERAGES Fraction Coiled (30 μM, 240 min, adults): 0.0556
AVERAGES Fraction Paralyzed (30 μM, 240 min, adults): 0.148
AVERAGES Fraction Punc (30 μM, 240 min, adults): 0.6
Fraction Coiled (30 μM, 240 min, adults): 0.0556 and 0.111 and 0.0
Fraction Paralyzed (30 μM, 240 min, adults): 0.222 and 0.111
Fraction Punc (30 μM, 240 min, adults): 0.6 and 0.667
C2 (number of animals) (30 μM, 360 min, adults): 0
NP (number of animals) (30 μM, 360 min, adults): 6 and 9 and 10
Punc (number of animals) (30 μM, 360 min, adults): 5 and 7 and 8
AVERAGES Fraction Coiled (30 μM, 360 min, adults): 0.0196
AVERAGES Fraction Paralyzed (30 μM, 360 min, adults): 0.135
AVERAGES Fraction Punc (30 μM, 360 min, adults): 0.376
Fraction Coiled (30 μM, 360 min, adults): 0.0588 and 0.0
Fraction Paralyzed (30 μM, 360 min, adults): 0.3 and 0.111 and 0.0
Fraction Punc (30 μM, 360 min, adults): 0.3 and 0.4 and 0.444
C1 (number of animals) (60 μM, 30 min, adults): 3 and 4
C2 (number of animals) (60 μM, 30 min, adults): 2
NP (number of animals) (60 μM, 30 min, adults): 0
Punc (number of animals) (60 μM, 30 min, adults): 7 and 10 and 12
AVERAGES Fraction Coiled (60 μM, 30 min, adults): 0.3
AVERAGES Fraction Paralyzed (60 μM, 30 min, adults): 0.154
AVERAGES Fraction Punc (60 μM, 30 min, adults): 0.545
Fraction Coiled (60 μM, 30 min, adults): 0.3 and 0.333 and 0.278
Fraction Paralyzed (60 μM, 30 min, adults): 0.3 and 0.111 and 0.0556
Fraction Punc (60 μM, 30 min, adults): 0.4 and 0.556 and 0.667
C2 (number of animals) (60 μM, 60 min, adults): 2 and 4 and 3
NP (number of animals) (60 μM, 60 min, adults): 0
P (number of animals) (60 μM, 60 min, adults): 9 and 7 and 8
Punc (number of animals) (60 μM, 60 min, adults): 4 and 6
AVERAGES Fraction Coiled (60 μM, 60 min, adults): 0.259
AVERAGES Fraction Paralyzed (60 μM, 60 min, adults): 0.444
AVERAGES Fraction Punc (60 μM, 60 min, adults): 0.3
Fraction Coiled (60 μM, 60 min, adults): 0.278 and 0.222
Fraction Paralyzed (60 μM, 60 min, adults): 0.5 and 0.4 and 0.444
Fraction Punc (60 μM, 60 min, adults): 0.222 and 0.333
C1 (number of animals) (60 μM, 90 min, adults): 3 and 4
C2 (number of animals) (60 μM, 90 min, adults): 3 and 4
NP (number of animals) (60 μM, 90 min, adults): 0
AVERAGES Fraction Coiled (60 μM, 90 min, adults): 0.37
AVERAGES Fraction Paralyzed (60 μM, 90 min, adults): 0.426
AVERAGES Fraction Punc (60 μM, 90 min, adults): 0.2
Fraction Coiled (60 μM, 90 min, adults): 0.333 and 0.4
Fraction Paralyzed (60 μM, 90 min, adults): 0.6 and 0.222 and 0.444
Fraction Punc (60 μM, 90 min, adults): 0.0556 and 0.4 and 0.167
C1 (number of animals) (60 μM, 120 min, adults): 2
NP (number of animals) (60 μM, 120 min, adults): 0
AVERAGES Fraction Coiled (60 μM, 120 min, adults): 0.3
AVERAGES Fraction Paralyzed (60 μM, 120 min, adults): 0.4
AVERAGES Fraction Punc (60 μM, 120 min, adults): 0.3
Fraction Coiled (60 μM, 120 min, adults): 0.222 and 0.444
Fraction Paralyzed (60 μM, 120 min, adults): 0.6 and 0.333 and 0.278
Fraction Punc (60 μM, 120 min, adults): 0.167 and 0.444 and 0.278
NP (number of animals) (60 μM, 240 min, adults): 0
AVERAGES Fraction Coiled (60 μM, 240 min, adults): 0.167
AVERAGES Fraction Paralyzed (60 μM, 240 min, adults): 0.352
AVERAGES Fraction Punc (60 μM, 240 min, adults): 0.5
Fraction Coiled (60 μM, 240 min, adults): 0.167
Fraction Paralyzed (60 μM, 240 min, adults): 0.6 and 0.222
Fraction Punc (60 μM, 240 min, adults): 0.222 and 0.6
Punc (number of animals) (60 μM, 360 min, adults): 6 and 11 and 10
Remark on animals at 360 min (60 μM, 360 min, adults): look dead
AVERAGES Fraction Coiled (60 μM, 360 min, adults): 0.0556
AVERAGES Fraction Paralyzed (60 μM, 360 min, adults): 0.4
AVERAGES Fraction Punc (60 μM, 360 min, adults): 0.5
Fraction Coiled (60 μM, 360 min, adults): 0.0556 and 0.111 and 0.0
Fraction Paralyzed (60 μM, 360 min, adults): 0.6 and 0.278
Fraction Punc (60 μM, 360 min, adults): 0.333 and 0.6 and 0.556
atypical locomotion (number of animals) (60uM): 3 and 6 and 1
coiled (number of animals) (60uM): 9 and 6 and 3 and 1
no phene (number of animals) (60uM): 0
paralyzed (number of animals) (60uM): 8 and 14 and 18
EC50 (Caenorhabditis elegans, 1 h, Fig. 1, dose-response at 60 min, wild-type young adults, +/- 95% CI, read-out: EC50): 6.6 ± 0.4 µM
